pIC50: −log10 of the molar value.
Target: Transcription factor Jun (Homo sapiens, UniProt P05412)
Experiment: Inhibition of AP-1-mediated transcriptional activation in human Jurkat cells by luciferase reporter gene assay

Chain of Transcription factor Jun (P05412 whole entry): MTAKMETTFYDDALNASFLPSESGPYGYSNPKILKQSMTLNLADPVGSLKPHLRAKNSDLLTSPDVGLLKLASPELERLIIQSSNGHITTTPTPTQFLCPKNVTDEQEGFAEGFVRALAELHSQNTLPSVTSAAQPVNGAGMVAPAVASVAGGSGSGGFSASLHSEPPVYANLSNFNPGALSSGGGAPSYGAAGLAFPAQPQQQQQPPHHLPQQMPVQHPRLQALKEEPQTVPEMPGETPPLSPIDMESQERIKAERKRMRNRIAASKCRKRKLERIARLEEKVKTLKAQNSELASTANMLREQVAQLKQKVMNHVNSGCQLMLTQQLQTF

| Structure (SMILES) | pIC50 |
| --- | --- |
| O=C(Nc1cc(C(F)(F)F)cc(C(F)(F)F)c1)c1cnc(C(F)(F)F)nc1C(F)(F)F [2,4-Bis-trifluoromethyl-pyrimidine-5-carboxylic acid (3,5-bis-trifluoromethyl-phenyl)-amide] | < 5.00 |
| N#Cc1ncc(C(=O)Nc2cc(C(F)(F)F)cc(C(F)(F)F)c2)c(C(F)(F)F)n1 [2-Cyano-4-trifluoromethyl-pyrimidine-5-carboxylic acid (3,5-bis-trifluoromethyl-phenyl)-amide] | < 5.00 |
| O=C(Nc1cc(C(F)(F)F)cc(C(F)(F)F)c1)c1ccc(Cl)cc1C(F)(F)F [N-(3,5-Bis-trifluoromethyl-phenyl)-4-chloro-2-trifluoromethyl-benzamide] | < 4.52 |
